This passage reports IC50 results from ChEMBL document CHEMBL4831552, “Novel Substituted Piperazine Amide Compounds as Indoleamine-2,3-dioxygenase (IDO) Inhibitors” (ACS Med Chem Lett, 2021).

Bounds are passed on as bounds.

This test has as its target Indoleamine 2,3-dioxygenase 1 (Homo sapiens, UniProt P14902). In words: Inhibition of IDO1 in IFN-gamma stimulated human HeLa cells incubated for 48 hrs by fluorescence microplate reader assay.

Sequence of Indoleamine 2,3-dioxygenase 1 (P14902 whole entry): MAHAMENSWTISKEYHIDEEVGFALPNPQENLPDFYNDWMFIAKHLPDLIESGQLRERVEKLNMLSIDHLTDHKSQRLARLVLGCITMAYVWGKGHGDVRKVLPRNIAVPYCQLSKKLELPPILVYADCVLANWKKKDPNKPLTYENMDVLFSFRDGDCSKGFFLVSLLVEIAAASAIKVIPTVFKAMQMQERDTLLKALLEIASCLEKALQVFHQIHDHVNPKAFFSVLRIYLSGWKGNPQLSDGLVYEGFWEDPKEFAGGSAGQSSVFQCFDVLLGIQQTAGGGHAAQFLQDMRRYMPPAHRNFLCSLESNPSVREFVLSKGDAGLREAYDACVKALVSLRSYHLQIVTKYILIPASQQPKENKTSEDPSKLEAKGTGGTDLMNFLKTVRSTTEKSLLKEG

As for `CC(=O)NC1CCN(C(=O)c2nn(CC(=O)N3CCN(c4cccc(C)c4Cl)CC3)c3c2C2CCCCC2C3)CC1` (configuration not stated), the IC50 (as a rule, the concentration that inhibits the measured activity by half) stood at 0.59 nM.

In the case of `Cc1cccc(N2CCN(C(=O)Cn3nc(C(=O)N4CCC5(CO)CC4C5)c4c3C[C@H]3C[C@@H]43)CC2)c1C`, the half-inhibitory concentration (IC50) was less than 0.51 nM.
